Several values for one entry are separate records, joined by “and”; a condition that tells them apart may be missing. Equal entries are not always repeated. Residues, ends and D or L forms follow the SMILES beside them. No end group written: not given here. *: point of attachment. FITC = O=C1OC2(c3ccc(O)cc3Oc3cc(O)ccc32)c2ccc(NC(=S)*)cc21; Ahx = NCCCCCC(=O)O; βAla = NCCC(=O)O
How the values were obtained:
[1] = Peptide self-aggregation by 1D 1H NMR at diverse concentrations; type: physicochemical; conditions: 1D 1H NMR in PBS/D2O (90/10 v/v), peptide 50-300 µM, constant pH
Experimental: In addition, to better understand results from NMR interaction assays, we evaluated whether peptide self-aggregation phenomena could occur in the peptide concentration range employed. Thus, NMR spectra were recorded for each PSscan peptide at diverse concentrations in the range of 50–300 µM (Figure 5, Figures S13 and S14). As all three peptides are rich in aromatic and positively charged residues, self-aggregation can occur not only through π–π stacking interactions but also through cation–π contacts between diverse peptide units. To better identify the signals of aromatic protons within 1D [^1H] NMR spectra in PBS, hydrogen/deuterium exchange experiments were conducted (Figure 5 and Figure S14). Indeed, an excess of D2O in solution induces the disappearance of HN and other exchangeable exposed protons, while aromatic and side-chain protons remain clearly visible (Figure 5 and Figure S14). When recording NMR spectra of peptides at different concentrations, particular care was also taken to keep the pH at a constant value to avoid undesired chemical shift changes.

Ship2-Sam [2] = target: T1, Ship2-Sam (Homo sapiens, UniProt O15357); assay: NMR chemical shift perturbation studies with Ship2-Sam; type: binding; conditions: 1D 1H: Ship2-Sam 27 µM, peptide 273 µM; 1H-15N HSQC: Ship2-Sam 20 µM, peptide 200 µM; PBS, 298 K
T1 construct: The Sam (Sterile alpha motif) domain of the lipid phosphatase Ship2 (Ship2-Sam); made in house; host or cells: E. coli
T1 sequence (O15357 1196-1258 limits assumed): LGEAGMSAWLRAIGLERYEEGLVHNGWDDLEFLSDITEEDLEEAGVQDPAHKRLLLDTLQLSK
Experimental: The interaction between diverse PSscan peptides and Ship2-Sam was assessed by NMR chemical shift perturbation (CSP) studies using both 1D [^1H] and 2D [^1H-^15N] HSQC experiments (Figure 4 and Figures S7–S10).
[^1H-^15N] HSQC spectra for chemical shift perturbation studies were acquired with ^15N labeled Ship2-Sam (20 μM concentration) in the absence and presence of PSscan255, PSscan258, and PSscan266 peptides (200 μM concentrations). For these experiments, concentrated peptide stocks in PBS were diluted in protein samples. The pH was checked upon each peptide’s addition and eventually carefully adjusted with NaOH or HCl solutions to avoid pH variations in the NMR samples. Chemical shift perturbation studies with 1D [^1H] NMR experiments were similarly recorded for Ship2-Sam alone (27 μM concentration) and in the presence of PSscan peptides (273 μM concentration). Spectra under identical experimental conditions were recorded for Ship2-Sam alone and following the addition of the control peptides.

PC-3 cells = conditions: 50 µM, 4 h, fluorescence (deconvolution) microscopy
Experimental: The FITC-TAT-PSscan255 peptide (50 μM) was added for 4 h to PC-3 cells (5 × 10^4/mL) that were positioned on coverslips inside a Petri dish. Following incubation, cells were first washed three times with PBS and then fixed in 4% paraformaldehyde in PBS for 15 min. Next, cell permeabilization was achieved via treatment with 0.3% Triton-X 100 in PBS for 30 min. After blocking for 15 min with 2% bovine serum albumin, the coverslips were marked with phalloidin-iFluor 594 (Abcam, Milan, Italy), which was diluted 1:1000 for 1 h. After three extra rinses with PBS, the nuclei were stained with Hoechst 33342 (Thermo Fisher Scientific, Milan, Italy), diluted 1:2000, and incubated for 15 min in the dark. Lastly, the coverslips were mounted onto microscope slides with Mowiol (Sigma from Merck Group, Milan, Italy) and permitted to cure for at least 48 h before undergoing microscopy imaging. Images were taken with a Nikon Eclipse Ti2-E inverted research microscope (Nikon Instruments, Melville, NY, USA) using standard phase contrast, epifluorescence microscopy, and deconvolution. Image acquisition was accomplished with an Andor Zyla 4.2+ sCMOS high-sensitivity monochrome camera and managed by Nikon NIS-Elements Advanced Research (AR) image acquisition and analysis software.

[3] = Serum stability in FBS (RP-HPLC); type: in vitro ADME; conditions: 25% fetal bovine serum, 25% FBS, 37 °C, peptide 80 µM, RP-HPLC UV peak area, average of two assays
Experimental: The PSscan255 peptide was mixed with 25% fetal bovine serum (FBS, from Merck group, Milan, Italy), previously incubated at 37 °C for 15 min, to obtain a peptide concentration equal to 80 µM in the end. These mixtures were kept at 37 °C and, at several time intervals (0, 1, 2, 3, 4, 5, 17, and 19 h), aliquots of the incubating solutions (50 µL) were quenched by using 15% trifluoroacetic acid (TFA) (50 µL) and then incubated at 2 °C for 15 min. Next, serum proteins were discarded by centrifugation (15 min at 3000 rpm), and samples were subjected to reverse-phase high-performance liquid chromatography (RP-HPLC). RP-HPLC runs were conducted with an HPLC LC-4000 series (Jasco) equipped with a UV detector by using a C18-Kinetek column (Phenomenex, Milan, Italy). Gradient elution was conducted at 25 °C; the gradient started with buffer A, consisting of water with 0.1% TFA. Then buffer B, consisting of acetonitrile with 0.1% TFA, was added from 5 to 70% in 20 min. The peak areas were integrated at diverse time lapses. Two assays were performed, and data points represent average values over the two experiments.

Ship2-Sam [4] = target: T1, Ship2-Sam; assay: BLI (BioLayer Interferometry) interaction assay; conditions: biotinylated-pegylated PSscan255 immobilized on streptavidin biosensor; Ship2-Sam 20-500 µM; 1:1 Langmuir model, global analysis; read-out: KD for binding to Ship2-Sam
Experimental: The peptide was purchased in the biotinylated–pegylated form (Table S4) and immobilized on a streptavidin-coated biosensor. Kinetic experiments, carried out at diverse Ship2-Sam concentrations in the range of 20–500 µM (Figure S19), provided dose–response signals, allowing the estimation of a KD value equal to (70 ± 40) µM.
For BLI interaction assays, the Sartorius Octet® N1 System and streptavidin (SA)-coated biosensor tips (Sartorius Italy S.r.l., Grassina-Bagno a Ripoli (FI), Italy) were employed. SA biosensor tips were first hydrated in 1X PBS buffer; then, to achieve ligand immobilization, the tips were dipped, for 300 sec with 1000 rpm agitation, into 4 µL of biotinylated–pegylated PSscan255 solution (50 µg/mL). Following peptide loading, each tip was placed in contact, for 300 s with a 1000 rpm agitation speed, with 4 µL of Ship2-Sam protein at several concentrations (20, 50, 100, 300, and 500 µM). All mathematical manipulations were handled by the Octet Analysis Studio 12.2 software from Sartorius. A 1:1 Langmuir binding model was used for data fitting, and the KDs were obtained through the global analysis mode.

PSscan255 = target: T2, PSscan255 (synthetic construct, also: biotinylated and pegylated, positions not given here); assay: BLI
T2 chain: KREWYKFLANKRIAY

In the case of `CC[C@H](C)[C@H](NC(=O)[C@H](CCCNC(=N)N)NC(=O)[C@H](CCCCN)NC(=O)[C@H](CC(N)=O)NC(=O)[C@H](C)NC(=O)[C@H](CCSC)NC(=O)[C@H](Cc1ccccc1)NC(=O)[C@H](CCCCN)NC(=O)[C@H](Cc1ccc(O)cc1)NC(=O)[C@H](Cc1c[nH]c2ccccc12)NC(=O)[C@H](CCC(=O)O)NC(=O)[C@H](CCCNC(=N)N)NC(=O)[C@H](CCSC)NC(C)=O)C(=O)N[C@@H](C)C(=O)N[C@@H](Cc1ccc(O)cc1)C(N)=O` [PSscan266] (Ac-MREWYKFMANKRIAY-NH2), the Self-aggregation [1] is reported as “could be affected by a certain amount of self-aggregation” and the “Interaction with Ship2-Sam by chemical shift perturbation” value (Ship2-Sam [2]) is reported as “weak interactions”.

For `CC[C@H](C)[C@H](NC(=O)[C@H](CCCNC(=N)N)NC(=O)[C@H](CCCCN)NC(=O)[C@H](CC(N)=O)NC(=O)[C@H](C)NC(=O)[C@H](CC(C)C)NC(=O)[C@H](Cc1ccccc1)NC(=O)[C@H](CCCCN)NC(=O)[C@H](Cc1ccc(O)cc1)NC(=O)[C@H](Cc1c[nH]c2ccccc12)NC(=O)[C@H](CCC(=O)O)NC(=O)[C@H](CCCNC(=N)N)NC(=O)[C@H](CCCCN)NC(=O)CNC(=O)CNC(=O)[C@H](CCC(N)=O)NC(=O)[C@@H]1CCCN1C(=O)[C@@H]1CCCN1C(=O)[C@H](CCCNC(=N)N)NC(=O)[C@H](CCCNC(=N)N)NC(=O)[C@H](CCCNC(=N)N)NC(=O)[C@H](CCC(N)=O)NC(=O)[C@H](CCCNC(=N)N)NC(=O)[C@H](CCCNC(=N)N)NC(=O)[C@H](CCCCN)NC(=O)[C@H](CCCCN)NC(=O)[C@H](CCCNC(=N)N)NC(=O)CNC(=O)CCNC(=O)CCCCCNC(=S)Nc1ccc2c(c1)C(=O)OC21c2ccc(O)cc2Oc2cc(O)ccc21)C(=O)N[C@@H](C)C(=O)N[C@@H](Cc1ccc(O)cc1)C(N)=O` [FITC-TAT-PSscan255] ({FITC-Ahx-βAla}-GRKKRRQRRRPPQGGKREWYKFLANKRIAY-NH2), the “Cellular localization after uptake” value (PC-3 cells) was “positioned in the cytoplasm”.

In the case of `CSCC[C@H](NC(=O)[C@H](Cc1ccccc1)NC(=O)[C@H](CCCCN)NC(=O)[C@H](CC(=O)O)NC(=O)[C@H](CCC(=O)O)NC(=O)[C@H](CCCNC(=N)N)NC(=O)[C@H](CCCNC(=N)N)NC(=O)[C@@H](NC(=O)[C@@H]1CCCN1C(=O)CNC(C)=O)[C@@H](C)O)C(=O)N[C@@H](Cc1ccc(O)cc1)C(=O)N[C@@H](Cc1ccccc1)C(N)=O` [CTRL, reference compound] (Ac-GPTRREDKFMYF-NH2), the “Interaction with Ship2-Sam by chemical shift perturbation” value (Ship2-Sam [2]) is reported as “did not reveal high-affinity binding”.

With `CC[C@H](C)[C@H](NC(=O)[C@H](CCCNC(=N)N)NC(=O)[C@H](CCCCN)NC(=O)[C@H](CC(N)=O)NC(=O)[C@H](C)NC(=O)[C@H](CC(C)C)NC(=O)[C@H](Cc1ccccc1)NC(=O)[C@H](CCCCN)NC(=O)[C@H](Cc1ccc(O)cc1)NC(=O)[C@H](Cc1c[nH]c2ccccc12)NC(=O)[C@H](CCC(=O)O)NC(=O)[C@H](CCCNC(=N)N)NC(=O)[C@H](CCCCN)NC(C)=O)C(=O)N[C@@H](C)C(=O)N[C@@H](Cc1ccc(O)cc1)C(N)=O` [PSscan255] (Ac-KREWYKFLANKRIAY-NH2) the remaining at 5 h, 80 µM ([3]; 5 h, read-out: Peptide recovered after incubation with FBS) was 80%, the remaining at 19 h, 80 µM ([3]; 19 h, read-out: Peptide not degraded after incubation with FBS) was 50% and the Kd (Ship2-Sam [4]) was ~70 µM and 70 µM.

With `CC[C@H](C)[C@H](NC(=O)[C@H](CCCNC(=N)N)NC(=O)[C@H](CCCCN)NC(=O)[C@H](CC(N)=O)NC(=O)[C@H](C)NC(=O)[C@H](CCSC)NC(=O)[C@H](Cc1ccccc1)NC(=O)[C@H](CCCCN)NC(=O)[C@H](Cc1ccc(O)cc1)NC(=O)[C@H](Cc1c[nH]c2ccccc12)NC(=O)[C@H](CC(=O)O)NC(=O)[C@H](CCCNC(=N)N)NC(=O)[C@H](CCCCN)NC(C)=O)C(=O)N[C@@H](C)C(=O)N[C@@H](Cc1ccc(O)cc1)C(N)=O` [PSscan258] (Ac-KRDWYKFMANKRIAY-NH2) the “Interaction with Ship2-Sam by chemical shift perturbation” value (Ship2-Sam [2]) was “weakest”.

B1: Ship2-Sam Sam (protein)
chain: ASGLGEAGMSAWLRAIGLERYEEGLVHNGWDDLEFLSDITEEDLEEAGVQDPAHKRLLLDTLQLSK
With B1 the Kd (PSscan255) was 70 µM.

— publication PMC11476629, “Exploring a Potential Optimization Route for Peptide Ligands of the Sam Domain from the Lipid Phosphatase Ship2” (International Journal of Molecular Sciences, 2024)
